One block for each compound: values may come before it.
Assays:
[1] = molecular target: Serine/threonine-protein kinase pim-1 (Homo sapiens) (UniProt P11309); assay: Inhibition of human recombinant PIM1 at 500 nM in presence of ATP by radiometric assay relative to control
[2] = molecular target: Insulin receptor (Homo sapiens) (UniProt P06213); assay: Inhibition of human recombinant INSR at 500 nM related to control ULK1
[3] = molecular target: T1, Phosphorylase b kinase gamma catalytic chain, liver/testis isoform (Homo sapiens) (UniProt P15735); assay: Inhibition of human recombinant PHKg2 at 500 nM in presence of ATP by radiometric assay relative to control
T1 sequence (whole entry): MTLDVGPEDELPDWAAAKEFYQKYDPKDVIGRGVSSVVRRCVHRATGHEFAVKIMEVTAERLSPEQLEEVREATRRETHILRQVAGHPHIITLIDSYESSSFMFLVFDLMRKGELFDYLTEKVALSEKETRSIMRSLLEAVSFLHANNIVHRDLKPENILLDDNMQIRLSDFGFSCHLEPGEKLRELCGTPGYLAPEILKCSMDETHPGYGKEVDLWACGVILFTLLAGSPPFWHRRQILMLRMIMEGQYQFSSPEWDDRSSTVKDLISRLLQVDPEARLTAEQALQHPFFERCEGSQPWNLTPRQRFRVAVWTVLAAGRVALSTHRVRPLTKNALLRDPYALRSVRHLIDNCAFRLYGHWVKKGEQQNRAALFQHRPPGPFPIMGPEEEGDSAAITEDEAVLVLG

[4] = molecular target: Tyrosine-protein kinase Lyn (Homo sapiens) (UniProt P07948); assay: Inhibition of human recombinant LYN at 15 nM in presence of ATP by radiometric assay relative to control
Chain of Tyrosine-protein kinase Lyn (Homo sapiens) (P07948 2-512 limits assumed): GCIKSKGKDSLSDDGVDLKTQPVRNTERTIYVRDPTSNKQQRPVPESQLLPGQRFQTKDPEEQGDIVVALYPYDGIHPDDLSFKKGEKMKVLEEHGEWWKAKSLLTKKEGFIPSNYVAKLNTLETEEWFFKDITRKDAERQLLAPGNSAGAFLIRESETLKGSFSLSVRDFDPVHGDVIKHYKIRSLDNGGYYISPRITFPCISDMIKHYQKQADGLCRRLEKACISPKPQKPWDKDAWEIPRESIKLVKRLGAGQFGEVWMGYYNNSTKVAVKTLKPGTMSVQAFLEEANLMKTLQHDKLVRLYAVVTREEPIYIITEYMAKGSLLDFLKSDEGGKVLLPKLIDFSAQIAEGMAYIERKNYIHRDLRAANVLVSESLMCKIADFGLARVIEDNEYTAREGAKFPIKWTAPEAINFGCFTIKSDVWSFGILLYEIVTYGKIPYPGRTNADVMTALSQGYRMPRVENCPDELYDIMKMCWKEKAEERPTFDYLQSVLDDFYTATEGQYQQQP

[5] = molecular target: T2, Serine/threonine-protein kinase TAO3 (Homo sapiens) (UniProt Q9H2K8); assay: Inhibition of human recombinant TAO3 at 15 nM related to control ULK1
T2 sequence (whole entry): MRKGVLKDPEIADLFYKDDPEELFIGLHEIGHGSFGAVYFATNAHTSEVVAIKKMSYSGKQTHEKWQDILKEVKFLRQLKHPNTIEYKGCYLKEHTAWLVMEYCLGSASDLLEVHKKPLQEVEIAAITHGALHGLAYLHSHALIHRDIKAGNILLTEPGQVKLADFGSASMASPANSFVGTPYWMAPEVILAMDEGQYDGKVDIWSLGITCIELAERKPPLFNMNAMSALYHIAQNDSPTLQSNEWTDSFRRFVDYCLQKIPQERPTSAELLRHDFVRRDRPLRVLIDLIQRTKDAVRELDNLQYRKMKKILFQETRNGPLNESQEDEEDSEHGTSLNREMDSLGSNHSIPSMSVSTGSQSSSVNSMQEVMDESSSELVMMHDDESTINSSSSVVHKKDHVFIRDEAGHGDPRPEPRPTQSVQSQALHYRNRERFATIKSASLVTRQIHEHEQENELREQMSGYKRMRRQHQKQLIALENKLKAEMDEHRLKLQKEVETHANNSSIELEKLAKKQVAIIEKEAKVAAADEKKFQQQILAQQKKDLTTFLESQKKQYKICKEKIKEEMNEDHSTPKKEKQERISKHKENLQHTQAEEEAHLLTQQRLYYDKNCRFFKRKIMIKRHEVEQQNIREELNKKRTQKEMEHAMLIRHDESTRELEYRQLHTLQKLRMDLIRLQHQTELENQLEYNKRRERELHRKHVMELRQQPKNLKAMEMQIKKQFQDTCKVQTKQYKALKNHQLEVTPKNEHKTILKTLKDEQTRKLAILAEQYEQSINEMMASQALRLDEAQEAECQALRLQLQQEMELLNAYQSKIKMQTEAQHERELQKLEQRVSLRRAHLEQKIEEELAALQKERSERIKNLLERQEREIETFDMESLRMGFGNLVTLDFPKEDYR

[6] = molecular target: T3, Myotonin-protein kinase (Homo sapiens) (UniProt Q09013); assay: Inhibition of human recombinant DMPK1 at 15 nM related to control ULK1
T3 sequence (whole entry): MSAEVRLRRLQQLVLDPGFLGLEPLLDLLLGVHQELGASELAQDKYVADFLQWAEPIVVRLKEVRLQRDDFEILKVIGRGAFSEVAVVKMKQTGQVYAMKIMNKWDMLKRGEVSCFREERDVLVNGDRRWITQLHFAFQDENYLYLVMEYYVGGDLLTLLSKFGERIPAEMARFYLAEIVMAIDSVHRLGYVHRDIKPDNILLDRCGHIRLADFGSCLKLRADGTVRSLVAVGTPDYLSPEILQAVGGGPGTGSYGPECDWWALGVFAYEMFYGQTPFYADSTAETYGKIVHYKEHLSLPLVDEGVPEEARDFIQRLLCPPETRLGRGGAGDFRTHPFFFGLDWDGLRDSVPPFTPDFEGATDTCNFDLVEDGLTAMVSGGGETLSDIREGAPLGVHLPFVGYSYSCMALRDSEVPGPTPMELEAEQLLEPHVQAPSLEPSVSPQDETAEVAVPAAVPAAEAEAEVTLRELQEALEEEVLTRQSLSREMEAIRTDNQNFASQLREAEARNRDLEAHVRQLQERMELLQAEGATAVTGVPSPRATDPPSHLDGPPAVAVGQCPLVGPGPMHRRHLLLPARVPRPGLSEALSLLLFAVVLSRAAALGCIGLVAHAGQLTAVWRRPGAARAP

[7] = molecular target: BDNF/NT-3 growth factors receptor (Homo sapiens) (UniProt Q16620); assay: Inhibition of human recombinant TRKB at 40 nM in presence of ATP by radiometric assay relative to control
Chain of BDNF/NT-3 growth factors receptor (Homo sapiens) (Q16620 32-822 limits assumed): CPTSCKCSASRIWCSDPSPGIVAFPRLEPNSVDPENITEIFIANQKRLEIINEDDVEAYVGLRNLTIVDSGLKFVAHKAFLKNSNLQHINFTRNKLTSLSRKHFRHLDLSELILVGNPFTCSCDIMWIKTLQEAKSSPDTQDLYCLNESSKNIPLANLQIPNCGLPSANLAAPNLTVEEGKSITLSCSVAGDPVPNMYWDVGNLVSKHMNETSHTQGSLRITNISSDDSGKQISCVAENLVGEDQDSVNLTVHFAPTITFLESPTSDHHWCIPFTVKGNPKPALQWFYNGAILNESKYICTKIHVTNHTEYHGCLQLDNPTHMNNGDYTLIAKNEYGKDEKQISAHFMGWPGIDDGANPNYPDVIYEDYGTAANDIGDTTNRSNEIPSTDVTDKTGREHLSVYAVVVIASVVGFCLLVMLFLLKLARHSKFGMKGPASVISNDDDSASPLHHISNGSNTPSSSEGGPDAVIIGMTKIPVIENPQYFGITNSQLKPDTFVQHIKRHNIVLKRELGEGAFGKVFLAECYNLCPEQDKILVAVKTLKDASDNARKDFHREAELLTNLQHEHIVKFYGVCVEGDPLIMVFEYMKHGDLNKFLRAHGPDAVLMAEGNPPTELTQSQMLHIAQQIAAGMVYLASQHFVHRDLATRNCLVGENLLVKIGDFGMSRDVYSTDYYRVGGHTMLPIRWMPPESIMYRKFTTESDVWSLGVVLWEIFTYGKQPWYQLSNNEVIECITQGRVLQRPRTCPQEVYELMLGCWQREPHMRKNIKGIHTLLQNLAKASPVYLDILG

[8] = molecular target: Mitogen-activated protein kinase kinase kinase 9 (Homo sapiens) (UniProt P80192); assay: Inhibition of human recombinant MLK1 at 40 nM in presence of ATP by radiometric assay relative to control
Chain of Mitogen-activated protein kinase kinase kinase 9 (Homo sapiens) (P80192 whole entry, looked up): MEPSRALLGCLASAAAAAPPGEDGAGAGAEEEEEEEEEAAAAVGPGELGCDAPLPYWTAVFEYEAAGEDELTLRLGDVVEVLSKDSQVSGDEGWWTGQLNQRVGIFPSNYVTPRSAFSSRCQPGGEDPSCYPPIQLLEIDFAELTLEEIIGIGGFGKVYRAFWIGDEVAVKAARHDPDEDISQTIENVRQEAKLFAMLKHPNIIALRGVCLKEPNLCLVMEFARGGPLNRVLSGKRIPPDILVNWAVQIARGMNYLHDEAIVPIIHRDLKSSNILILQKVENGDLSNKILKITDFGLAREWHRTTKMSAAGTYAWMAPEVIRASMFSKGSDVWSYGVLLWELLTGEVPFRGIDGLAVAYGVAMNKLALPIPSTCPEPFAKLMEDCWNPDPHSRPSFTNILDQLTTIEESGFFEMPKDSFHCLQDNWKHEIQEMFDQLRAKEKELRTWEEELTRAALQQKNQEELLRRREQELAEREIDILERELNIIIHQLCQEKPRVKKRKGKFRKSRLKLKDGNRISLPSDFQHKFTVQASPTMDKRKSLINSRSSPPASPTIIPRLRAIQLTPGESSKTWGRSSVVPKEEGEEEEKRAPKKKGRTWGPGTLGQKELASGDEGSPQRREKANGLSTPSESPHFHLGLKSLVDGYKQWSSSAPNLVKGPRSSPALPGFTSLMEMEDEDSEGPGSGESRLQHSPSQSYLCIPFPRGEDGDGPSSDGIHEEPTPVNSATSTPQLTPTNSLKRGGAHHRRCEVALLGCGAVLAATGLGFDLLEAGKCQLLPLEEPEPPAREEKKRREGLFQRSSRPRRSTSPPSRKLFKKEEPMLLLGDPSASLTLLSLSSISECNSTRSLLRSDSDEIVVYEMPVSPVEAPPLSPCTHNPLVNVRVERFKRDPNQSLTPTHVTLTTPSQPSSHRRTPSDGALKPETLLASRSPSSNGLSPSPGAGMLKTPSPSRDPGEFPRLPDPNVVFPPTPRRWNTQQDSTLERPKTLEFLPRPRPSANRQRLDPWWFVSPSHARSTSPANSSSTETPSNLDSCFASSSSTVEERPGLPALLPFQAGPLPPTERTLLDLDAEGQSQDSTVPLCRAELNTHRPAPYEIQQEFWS

[9] = molecular target: Homeodomain-interacting protein kinase 2 (Homo sapiens) (UniProt Q9H2X6); assay: Inhibition of human recombinant HIPK2 at 40 nM in presence of ATP by radiometric assay relative to control
Chain of Homeodomain-interacting protein kinase 2 (Homo sapiens) (Q9H2X6 whole entry, looked up): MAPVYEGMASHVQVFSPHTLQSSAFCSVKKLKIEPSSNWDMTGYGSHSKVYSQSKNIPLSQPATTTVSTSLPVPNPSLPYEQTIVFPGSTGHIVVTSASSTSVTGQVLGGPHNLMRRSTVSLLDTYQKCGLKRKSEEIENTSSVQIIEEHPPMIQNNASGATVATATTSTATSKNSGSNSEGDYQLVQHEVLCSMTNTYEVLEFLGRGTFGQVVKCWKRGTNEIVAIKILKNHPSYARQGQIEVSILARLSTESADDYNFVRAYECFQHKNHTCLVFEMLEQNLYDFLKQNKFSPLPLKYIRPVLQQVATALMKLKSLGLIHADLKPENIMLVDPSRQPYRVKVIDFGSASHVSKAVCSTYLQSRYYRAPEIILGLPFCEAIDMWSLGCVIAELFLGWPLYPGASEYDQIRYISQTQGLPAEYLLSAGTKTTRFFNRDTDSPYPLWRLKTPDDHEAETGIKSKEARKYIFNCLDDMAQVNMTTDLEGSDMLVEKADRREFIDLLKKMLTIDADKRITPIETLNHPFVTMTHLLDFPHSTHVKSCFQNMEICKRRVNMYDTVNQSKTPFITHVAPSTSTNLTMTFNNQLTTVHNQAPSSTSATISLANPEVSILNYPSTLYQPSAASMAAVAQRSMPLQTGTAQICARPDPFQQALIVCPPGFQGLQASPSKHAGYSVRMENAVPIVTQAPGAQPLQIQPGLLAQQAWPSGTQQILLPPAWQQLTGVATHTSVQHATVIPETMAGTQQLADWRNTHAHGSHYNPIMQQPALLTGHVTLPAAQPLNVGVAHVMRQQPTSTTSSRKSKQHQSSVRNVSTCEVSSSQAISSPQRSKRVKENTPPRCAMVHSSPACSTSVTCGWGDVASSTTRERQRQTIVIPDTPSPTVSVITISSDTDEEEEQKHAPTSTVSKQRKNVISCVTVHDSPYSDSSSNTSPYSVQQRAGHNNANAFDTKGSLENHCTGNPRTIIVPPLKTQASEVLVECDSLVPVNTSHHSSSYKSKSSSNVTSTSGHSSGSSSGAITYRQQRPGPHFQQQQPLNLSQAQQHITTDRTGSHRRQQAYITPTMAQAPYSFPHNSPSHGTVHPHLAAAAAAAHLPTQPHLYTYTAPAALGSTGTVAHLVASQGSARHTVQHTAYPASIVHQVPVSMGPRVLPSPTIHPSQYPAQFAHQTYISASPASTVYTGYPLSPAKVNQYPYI

Chain of Serine/threonine-protein kinase pim-1 (Homo sapiens) (P11309 whole entry, looked up): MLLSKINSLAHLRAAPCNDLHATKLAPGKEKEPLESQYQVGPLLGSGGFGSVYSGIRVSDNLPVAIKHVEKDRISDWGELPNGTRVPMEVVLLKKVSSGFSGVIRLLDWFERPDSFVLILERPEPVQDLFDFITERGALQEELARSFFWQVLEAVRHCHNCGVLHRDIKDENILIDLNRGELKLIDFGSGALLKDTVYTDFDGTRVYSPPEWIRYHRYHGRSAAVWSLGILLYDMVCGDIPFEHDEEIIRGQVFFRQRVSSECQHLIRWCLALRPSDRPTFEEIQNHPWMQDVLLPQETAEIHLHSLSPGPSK

inhibition [1]: 2% | fold change (FC) [2]: 0 | inhibition [3]: 0%
Compound: CNC(=O)c1ccccc1Oc1nc(Nc2cc(OC)c(OC)c(OC)c2)ncc1Br

inhibition [4]: 19% | fold change (FC) [5]: 0.01 | fold change (FC) [6]: 0
Compound: CC(C)[C@H](NC(=O)c1cc(-c2cnn3cc(-c4ccc(OCCN5CCCCC5)cc4)cnc23)cs1)C(F)(F)F

inhibition [7]: 19% | inhibition [8]: 7% | inhibition [9]: 0%
Compound: O=C(N[C@@H](C1CC1)C(F)(F)F)c1cc(-c2cnn3cc(-c4ccc(F)cc4)cnc23)cs1
